One data set has as its target T1, PARP2 (Homo sapiens, UniProt Q9UGN5).
T1 construct: purchased BPS Bioscience 80581
The experiment in a line: PARP2 enzymatic inhibition assay (PARP2 Colorimetric Assay Kit). The class given is biochemical. On the procedure:
Briefly, the 1× histone mixture was added to each well and incubated overnight at 4 °C. Each well was washed three times with 200 µL 1× TBST buffer and filled with 200 µL Blocking buffer at room temperature for 90 min. Then, each well was filled with 25 µL of PARP master mixture (5 μL activated DNA + 2.5 μL 10× PARP Assay mixture + 2.5 μL 10× PARP buffer + 15 μL distilled water). Next, 5 µL of the compound of different concentrations was added to each well, and PARP enzyme was added and incubated at room temperature for 1 h. Next, streptavidin HRP solution was added and incubated at room temperature for 30 min. After adding 100 µL of colorimetric HRP substrate to each well, the plate was incubated until a blue color developed in the positive well, which contained PARP enzyme without inhibitors. The reaction was then quenched with 2 M sulfuric acid, and absorbance at 450 nm was measured using a microplate reader (BioTek, Winooski, VT, USA). After calculating the inhibition rate, the IC50 value was determined.

For the next data set, the target named is T2, recombinant HDAC6 (Homo sapiens, UniProt Q9UBN7).
T2 construct: purchased BPS Bioscience
T2 sequence (Q9UBN7 1-1215): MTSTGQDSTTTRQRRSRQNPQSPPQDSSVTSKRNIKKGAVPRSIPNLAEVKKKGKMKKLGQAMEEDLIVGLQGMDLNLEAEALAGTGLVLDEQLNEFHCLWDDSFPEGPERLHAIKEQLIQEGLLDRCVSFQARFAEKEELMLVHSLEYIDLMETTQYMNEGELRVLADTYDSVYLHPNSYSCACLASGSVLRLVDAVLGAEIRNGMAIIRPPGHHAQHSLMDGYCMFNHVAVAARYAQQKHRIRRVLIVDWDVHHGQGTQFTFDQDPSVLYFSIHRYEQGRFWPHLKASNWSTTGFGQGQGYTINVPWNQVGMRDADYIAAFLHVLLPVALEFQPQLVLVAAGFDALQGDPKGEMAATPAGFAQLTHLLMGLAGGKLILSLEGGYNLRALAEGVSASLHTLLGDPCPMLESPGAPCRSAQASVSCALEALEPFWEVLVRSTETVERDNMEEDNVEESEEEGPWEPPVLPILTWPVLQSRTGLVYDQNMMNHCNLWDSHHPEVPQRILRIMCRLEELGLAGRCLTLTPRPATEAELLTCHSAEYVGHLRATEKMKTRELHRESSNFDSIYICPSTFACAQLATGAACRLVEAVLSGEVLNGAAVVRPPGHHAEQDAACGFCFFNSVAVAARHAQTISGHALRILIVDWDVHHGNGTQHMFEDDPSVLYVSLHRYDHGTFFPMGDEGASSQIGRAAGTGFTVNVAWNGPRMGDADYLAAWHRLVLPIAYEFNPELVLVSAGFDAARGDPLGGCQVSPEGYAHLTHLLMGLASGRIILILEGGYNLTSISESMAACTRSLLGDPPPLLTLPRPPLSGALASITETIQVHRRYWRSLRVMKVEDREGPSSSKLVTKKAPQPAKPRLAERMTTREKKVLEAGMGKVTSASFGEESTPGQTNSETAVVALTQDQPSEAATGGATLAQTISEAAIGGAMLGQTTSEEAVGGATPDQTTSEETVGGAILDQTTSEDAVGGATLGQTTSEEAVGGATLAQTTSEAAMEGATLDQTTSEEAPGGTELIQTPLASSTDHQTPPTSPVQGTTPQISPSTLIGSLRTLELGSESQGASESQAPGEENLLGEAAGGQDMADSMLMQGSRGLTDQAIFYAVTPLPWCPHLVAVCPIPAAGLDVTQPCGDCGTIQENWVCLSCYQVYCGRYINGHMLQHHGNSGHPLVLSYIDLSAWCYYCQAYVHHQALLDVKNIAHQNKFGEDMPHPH
The experiment in a line: HDAC6 inhibition assay (Ac-peptide-AMC fluorescence). Format: biochemical. The method, then:
The in vitro HDAC inhibition assays were carried out by Sundia MediTech Co. Ltd. in Shanghai, China. […] Reactions were stopped with trypsin, and the samples were incubated for another 90 min at 37 °C. […] IC50 values were obtained using GraphPad Prism software.

A short description of data set [1]: Body weight of tumor-bearing mice. Format: in vivo. The source says: MDA-MB-436, MDA-MB-231, and 4T1 cells were orthotopically injected into the fat pads of 6- to 7-week-old female NOD-Prkdc^scid Il2rg^em1Smoc (M-NSG), BALB/c nude and BALB/c mice, respectively. Fourteen 6-week-old female MMTV-PyMT mice were divided into two groups. The […] in each group were littermates. All animal procedures were approved by the Institutional Animal Care and Use Committee at Shenzhen University.
MDA-MB-436 cells (5 × 10^6) were suspended in PBS and Matrigel (Corning) at a 1:1 ratio and orthotopically injected into the fat pads of 6- to 7-week-old female NOD-Prkdc^scid Il2rg^em1Smoc (M-NSG) mice from the Shanghai Model Organisms Center, Inc. MDA-MB-231 cells (5 × 10^6) were suspended in PBS orthotopically injected into the fat pads of 6- to 7-week-old female BALB/c nude mice from the Shanghai Model Organisms Center, Inc. 4T1 cells (1 × 10^6) were suspended in PBS and injected into the fat pads of 6- to 7-week-old […] BALB/c mice from GemPharmatech Co., Ltd. When the tumor size reached 100 mm^3, the mice were randomly divided into three treatment groups without blinding: B102 (15 mg/kg), B302 (50 mg/kg) or vehicle [10% N,N-dimethylacetamide (DMAC, Sangon Biotech) and 6% polyethylene glycol 12-hydroxystearate (Solutol HS-15, MedChem Express, Monmouth Junction, NJ, USA) in saline] treatment via an intraperitoneal injection once daily. […]

The next data set relates to MCF-7 cells. Put plainly: MTT cell viability assay, MCF-7. Particulars: Homo sapiens, MCF7, 72 h, read-out: IC50 MCF-7.

T1 sequence (Q9UGN5 whole entry): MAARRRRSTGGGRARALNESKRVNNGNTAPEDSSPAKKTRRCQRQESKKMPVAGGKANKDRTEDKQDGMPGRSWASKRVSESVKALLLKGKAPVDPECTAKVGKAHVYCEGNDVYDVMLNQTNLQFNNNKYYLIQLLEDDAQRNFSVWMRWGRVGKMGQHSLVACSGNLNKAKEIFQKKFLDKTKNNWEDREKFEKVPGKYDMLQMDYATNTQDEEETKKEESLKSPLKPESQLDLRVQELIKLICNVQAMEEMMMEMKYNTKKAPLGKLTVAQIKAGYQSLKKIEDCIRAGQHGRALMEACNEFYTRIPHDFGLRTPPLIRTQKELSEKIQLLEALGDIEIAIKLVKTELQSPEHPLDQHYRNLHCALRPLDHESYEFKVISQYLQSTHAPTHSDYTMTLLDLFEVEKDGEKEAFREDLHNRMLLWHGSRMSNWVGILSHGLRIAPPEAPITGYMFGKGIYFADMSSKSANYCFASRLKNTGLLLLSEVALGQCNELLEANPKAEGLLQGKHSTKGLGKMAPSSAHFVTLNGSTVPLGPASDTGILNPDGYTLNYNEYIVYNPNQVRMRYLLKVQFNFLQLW
Experimental for MCF-7 cells: The viability assay was measured by a 3-(4,5-dimethylthiazol-2-yl)−2,5-diphenyltetrazolium bromide (MTT) assay.
In brief, cells were seeded at a density of 6,000 cells in 96-well plates and cultured overnight. […] After aspiration of the medium, the formazan crystals were dissolved in 100 μL of DMSO. The absorbance at 490 nm was measured using a microplate reader (BioTek). All these analyses were performed at least three times.

For orientation: IC50 means the concentration that gives 50% inhibition. Turning to `Nc1cc(F)ccc1NC(=O)CCc1ccc(CN2CCN(C(=O)c3cc(Cc4n[nH]c(=O)c5ccccc45)ccc3F)CC2)cc1` [Compound B302], the half-inhibitory concentration (IC50) against PARP2 is 0.057 µM; on recombinant HDAC6, above 10 µM; with MCF-7 cells, 4.93 ± 1.09 µM. Moreover, the “body weights of tumor-bearing mice” value in data set [1] (50 mg/kg/d) is reported as “not obviously altered”.

`Nc1cc(F)ccc1NC(=O)/C=C/c1ccc(CN2CCN(C(=O)c3cc(Cc4n[nH]c(=O)c5ccccc45)ccc3F)CC2)cc1` [Compound B102]: the IC50 was 0.00213 µM at PARP2, above 10 µM at recombinant HDAC6 and 13.4 ± 3.2 µM with MCF-7 cells. The “body weights of tumor-bearing mice” value in data set [1] (15 mg/kg/d) is “not obviously altered”.

(Values after paper PMC10770036, “Novel dual inhibitors of PARP and HDAC induce intratumoral STING-mediated antitumor immunity in triple-negative breast cancer” (Cell Death & Disease, 2024).)
